The subject of assay [1] is MBD3L2 mRNA (DUX4 downstream gene). As to the kind of experiment: MBD3L2 mRNA expression by qPCR in FSHD myotubes. Type of assay: cell-based, Human. The protocol:
Cell Plating: Performed three days prior to treatment, 10000 cells were plated per well on gelatinized 96-well plates, or 100000 cells on gelatinized 6-well plates.
For ASO or compound treatments cells were plate into 100 μL of Promocell growth medium containing ASO or compounds at the described concentrations.
(§1) On day 0, change to differentiation media. Remove plates from the incubator and aspirate the growth medium, Wash once with PBS, 100 μL for 96-wells and 1 mL for a 6-well plate, Add 100 μL or 2 mL of differentiation medium per well, 96- or 6-well respectively. Add antisense oligonucleotides or drug at the desire concentration and put back in the incubator. Fusion should start within day 1-2. Incubate for 3-4 days.
Cells were removed from the incubator and media aspirated. Quickly lysed following one of the following protocols: For lysis in 96-well plates direct lysis and one-step RT-Preamp qPCR protocol described below. For each 96-well prepare a mix containing: 19.5 μL Roche Realtime Ready lysis buffer, 0.25 μL RNAse inhibitor, 0.25 μL DNAseI (from Thermo not the included one in the kit). 20 μL of the mix was added to each well, mix 5 times and incubated 5 minutes at RT or alternatively shaken vigorously for 15 minutes. Lysis was observed under the microscope. Samples were frozen −80° C. at least for 15 minutes,
For qPCR, dilute 1:10 and use 2 μL for a 10 μL 1-step RT-qPCR reaction. For detection of GAPDH, RPLP0, TBP, MYOG, FRG1, MYH3, ACTN2, etc.). Per 10 μL reaction: RNA (1:10 dilution lysate) 2 μL, Fast Advanced Taqman Master Mix (2×) 5 μL, RT enzyme mix (40×) 0.25 μL, Taqman probe set (20×) 0.5 μL, H2O 2.25 μL. The following reaction protocol was run on the QuantStudio 7: 48° C. for 15 min, 50° C. for 2 min, 95° C. for 30 sec, 40×, 95° C. for 5 sec, 60° C. for 30 sec, then plates were read as specified by the manufacturer (Thermo). For 1-step RT-Preamplification used for detection of DUX4 downstream genes, i.e. MBD3L2, ZSCAN4, LEUTX, TRIM43, KHDC1L. POL2RA-VIC was used as Endogenous control). Per 10 μL reaction: RNA (1:10 dilution lysate) 2.25 μL, Taqman Pre-Amp Master Mix (2×) 5 μL, RT enzyme mix (40×) 0.25 μL, Taqman probe set (0.2×)*2.5 μL, * Pooling the TaqMan Assays: equal volumes of each 20× TaqMan® Gene Expression Assay, up to 100 assays were combined. For example, to pool 50 TaqMan assays, 10 μL of each assay were combined in a microcentrifuge tube. The pooled TaqMan assays were diluted using 1×TE buffer so that each assay is at a final concentration of 0.2×. For the above example, add 500 μL of 1×TE buffer to the pooled TaqMan assays for a total final volume of 1 mL. The QuantStudio7 protocol was used 48° C. 15 min, 95° C. 10 min, 10 cycles: 95° C. 15 sec, 60° C. 4 min, 4° C. infinite. Samples were then diluted to 50 μL and continue with the qPCR step. Per 10 μL reaction: Preamp dilution 2 μL, Fast Advanced Taqman Master Mix (2×) 5 μL, Taqman probe set (20×) 0.5 μL, H2O 2.5 μL. When multiplexing the volume was adjusted to 10 μL total). The following program was run on the QuantStudio7: 50° C. for 2 min, 95° C. for 30 sec, 40×, 95° C. for 5 sec, 60° C. for 30 sec, plates were read as per the manufacturers specifications (Thermo).
After treatment, the control and treated cells were processed for realtime PCR quantification of MBD3L2 mRNA (DUX4 downstream gene) and myogenin (MYOG) mRNA (control) expression.

The next assay has as its system FSHD myotubes. As to the kind of experiment: Myotube formation / fusion, MHC and DAPI staining. Type of assay: cell-based, Human. To be noted: FSHD myotubes; 10, 100, and 1000 nM. The protocol:
as §1
Briefly, cells were fixed in 4% paraformaldehyde and […] for 10 min at room temperature. Cells were permeabilized with PBST (1×PBS solution with 0.1% Triton X-100) before blocking with 10% Normal Donkey Serum or 3% BSA (NDS) in PBST. […] DUX4 was detected by immunocytochemistry using the E5-5 antibody in differentiated FSHD myotubes. Activated Caspase-3 was detected cell signaling antibody that we're using for ICC, Asp175 (https://www.cellsignal.com/products/primary-antibodies/cleaved-caspase-3-asp175-antibody/9661).
Immortalized FHSD myotubes were differentiated and treated with DMSO vehicle control or FTX-1821 at concentrations of 1 μM, 0.33 μM, 0.11 μM, or 0.037 μM. […] The nuclei in myotubes were quantified according to MHC staining (FIG. 8B).

The term IC50 denotes the concentration that inhibits the measured activity by half.

For the compound `Cn1c(=O)c(Oc2ccc(F)cc2F)cc2cnc(NC(CCO)CCO)nc21` [Pamapimod, 6-(2,4-difluorophenoxy)-2-((1,5-dihydroxypentan-3-yl)amino)-8-methylpyrido[2,3-d]pyrimidin-7(8H)-one], in assay [1] (FSHD1 and FSHD2 primary patient myoblast lines, 1 μM), the “MBD3L2 mRNA expression” value is given as “reduction of MBD3L2”. The “MBD3L2 downstream gene mRNA levels normalized to POLR2A mRNA” value in assay [1] (FSHD myotubes, 10, 100, and 1000 nM vs DMSO) is recorded as “dose-dependently reduced”. In addition, the IC50 in assay [1] (Homo sapiens, Myotube, read-out: IC50, reduction of MBD3L2 mRNA expression, FSHD myotubes, realtime PCR) is below 10 nM. Moreover, the MBD3L2 expression levels result in assay [1] (myotubes of four FSHD patient lines FTCE-016, -020, -197, -196, 1 μM) is “reduced in all of the FSHD lines”. For the same compound, the differentiation into myotubes result in the assay on FSHD myotubes is “without impacting”.

For the origin of these results see US11291659B2, “P38 kinase inhibitors reduce DUX4 and downstream gene expression for the treatment of FSHD” (Fulcrum Therapeutics, Inc., priority 2017, dated 2022).
